# Assay results taken from patent publication US20120202801A1, “METHODS FOR TREATING BREAST CANCER” (priority 2009, published 2012).
# pEC50: −log10 of the molar value. Read-outs that look alike come from different tables or passages of the source.
# Legend:
# [1] = In vitro plasma protein binding of 14C-Compound #10; assay type: in vitro ADME, mice, rats, dogs, monkeys, and humans; conditions: mouse, rat, dog, monkey, human, all species, read-out: plasma protein binding, overall mean
# [2] = Dose response assessment in nude mice bearing HT1080 xenografts (tumor and plasma human VEGF, tumor size, trough plasma concentration); assay type: in vivo; conditions: male, athymic nude, mouse, plasma, oral; 1 mg/kg BID, 16 hours after the first day of dosing (n=3)
# Description: Experimental Study Design. HT1080 cells (5×10^6 cells/mouse) were implanted subcutaneously in male athymic nude mice.
# Tumor size was measured using calipers at periodic intervals during the study (data shown in Section 9.2.2). […] Mice were sacrificed, and excised tumors were homogenized in buffer containing protease inhibitors. Both terminal intratumoral and pathologic plasma human VEGF levels were measured using an ELISA that recognizes human VEGF121 and VEGF165 (as described in Section 9.1.1.1). Intratumoral VEGF levels were normalized to the total tumor protein concentration, while pathologic plasma human VEGF levels were expressed in pg/mL of plasma.
# Experimental Design. The experimental design was reported in Section 9.1.2.2.
# [3] = tested on: soluble VEGF121 and VEGF165 isoforms; experiment: ELISA of soluble VEGF production in multiple human tumor cell lines (EC50); assay type: cell-based
# Description: Study Design. […] In these experiments, cultures were established under normoxic conditions (21% oxygen). […] Cells requiring induction of VEGF production were incubated under hypoxic conditions (1% oxygen). At the completion of treatment, the conditioned media were collected and assayed by ELISA (as described in Section 9.1.1.1) for soluble VEGF121 and VEGF165 isoforms; results were calculated as percentage inhibition relative to vehicle treated controls. EC50 values were calculated from the dose concentration response curves.
# [4] = Single-dose oral toxicity study in rats; conditions: Sprague Dawley, rat, in vivo
# Description: The L23 vehicle was used.
# Because maximal exposure occurred at 100 mg/kg, this dose is considered the NOAEL for 1 day of dosing.
# [5] = rat, in vivo
smiles,measurement,setting,value
COc1ccc([C@H]2c3[nH]c4ccc(Cl)cc4c3CCN2C(=O)Oc2ccc(Cl)cc2)cc1 (racemic) [Compound #10],fraction unbound,[1],≤ 0.005
same,concentration at 16 h,[2],280 nM
same,pEC50,"[3]; A-375, Melanoma, A375, hypoxic (1% oxygen), 48 hours, read-out: VEGF Inhibition Approximate EC50",~7.30
same,pEC50,"[3]; A-431, Epidermoid, A431, 48 hours, read-out: VEGF Inhibition Approximate EC50",~8.00
same,pEC50,"[3]; ASPC1, ASPC-1 (Pancreas), 48 hours, read-out: VEGF Inhibition EC50",< 4.52
same,pEC50,"[3]; Breast, MDA-MB-468, hypoxic (1% oxygen), 48 hours, read-out: VEGF Inhibition Approximate EC50",~8.30
same,pEC50,"[3]; Cervical, HeLa, hypoxic (1% oxygen), 48 hours, read-out: VEGF Inhibition Approximate EC50",~8.70
same,pEC50,"[3]; Colorectal, HCT-116, 48 hours, read-out: VEGF Inhibition Approximate EC50",~8.00
same,pEC50,"[3]; Gastric, AGS, 48 hours, read-out: VEGF Inhibition Approximate EC50",~10.00
same,pEC50,"[3]; Gastric, Kato III, hypoxic (1% oxygen), 48 hours, read-out: VEGF Inhibition Approximate EC50",~8.00
same,pEC50,"[3]; HCT-116, HCT116 (Colorectal), 48 hours, read-out: VEGF Inhibition EC50",8.00
same,pEC50,"[3]; HEK293 (Renal cell), 48 hours, read-out: VEGF Inhibition EC50",8.00
same,pEC50,"[3]; HPAF-2 (Pancreas), 48 hours, read-out: VEGF Inhibition EC50",< 4.52
same,pEC50,"[3]; HT-1080, Fibrosarcoma, HT1080, 48 hours, read-out: VEGF Inhibition Approximate EC50",~8.00
same,pEC50,"[3]; HT-1080, HT1080 (Fibrosarcoma), 48 hours, read-out: VEGF Inhibition EC50",8.00
same,pEC50,"[3]; HeLa (Cervical), 48 hours, read-out: VEGF Inhibition EC50",8.70
same,pEC50,"[3]; Lung, A549, 48 hours, read-out: VEGF Inhibition Approximate EC50",~7.30
same,pEC50,"[3]; Lung, Calu-6, hypoxic (1% oxygen), 48 hours, read-out: VEGF Inhibition Approximate EC50",~8.15
same,pEC50,"[3]; Lung, NCI H460, 48 hours, read-out: VEGF Inhibition Approximate EC50",~8.00
same,pEC50,"[3]; MDA-MB-231, 48 h, read-out: VEGF Inhibition Approximate EC50",~8.30
same,pEC50,"[3]; NCI H460 (Lung), 48 hours, read-out: VEGF Inhibition EC50",8.00
same,pEC50,"[3]; Neuroblastoma, SY5Y, hypoxic (1% oxygen), 48 hours, read-out: VEGF Inhibition Approximate EC50",~8.30
same,pEC50,"[3]; PL45, PL-45 (Pancreas), 48 hours, read-out: VEGF Inhibition EC50",< 4.52
same,pEC50,"[3]; Pancreas, Capan-1, hypoxic (1% oxygen), 48 hours, read-out: VEGF Inhibition Approximate EC50",~8.30
same,pEC50,"[3]; Prostate, LNCaP, hypoxic (1% oxygen), 48 hours, read-out: VEGF Inhibition Approximate EC50",~7.82
same,pEC50,"[3]; Renal cell, HEK293, 48 hours, read-out: VEGF Inhibition Approximate EC50",~8.00
same,pEC50,"[3]; SK-OV-3, Ovarian, SKOV3, hypoxic (1% oxygen), 48 hours, read-out: VEGF Inhibition Approximate EC50",~8.00
same,pEC50,"[3]; SNU1, Gastric, SNU-1, 48 hours, read-out: VEGF Inhibition Approximate EC50",~10.00
same,pEC50,"[3]; U-87MG (Glioblastoma), 48 hours, read-out: VEGF Inhibition EC50",< 4.52
same,dose of maximal exposure,[4],100 mg/kg
same,dose of maximal exposures,"[5]; both, Sprague Dawley, 7 days",120 mg/kg/day
same,elevation in mean cholesterol levels,[5],2.5-3 fold
same,elevation in mean glucose levels,[5],about 1.3 fold
